Consider two compounds from US20220023335A1, “COMPOSITION FOR PREVENTION AND/OR IMPROVEMENT OF ADVERSE DRUG REACTION, SYMPTOM ASSOCIATED WITH ADVERSE DRUG REACTION, AND/OR ADVERSE REACTION ASSOCIATED WITH MEDICAL TREATMENT” (MiZ Company Limited, priority 2020, published 2022).

The conditions of experiment [1]: known; cited from earlier work.
In experiment [2] the test system is rhabdomyolysis caused by the antibacterial agent. The settings on record: person, hydrogen gas 6.6% by volume, approximately 120 mL/min, 90 minutes per day for two weeks.
Excerpt: They lost strength in the body and was taken to hospital by ambulance. […] They were discharged from hospital one week later, but the tiredness persisted, and they had difficulty in putting strength into the limbs. […] Their condition improved to the extent that they could have a walk.
Experiment [3] has as its system malaise and nausea after radiotherapy. The note with it: cancer patient after radiotherapy, hydrogen gas 3% to 4% by volume, approximately 120 mL/min.
Experiment [4] concerns adverse reactions to hemodialysis (walking difficulty, edema). The note with it: person on hemodialysis, hydrogen approximately 5% in air, 200 mL/min, three to four hours per day. The source says:
A patient developed renal failure as a complication of diabetes mellitus and has been receiving hemodialysis since 2006.

For experiment [5], the system named is adverse drug reaction of persistent insomnia, malaise. The note with it: person. The source says:
A patient with esophageal cancer experienced an adverse drug reaction of persistent insomnia due to treatment with anticancer agents, lost appetite because of malaise, and could not even go out. […] The inhalation time per day was two to three hours. […] When they drank too much alcohol, they used to have a severe hangover.

Experiment [6] deals with adverse drug reactions of malaise and rough skin. The note with it: person; hydrogen gas 4% to 5% by volume, approximately 200 mL/min, three to five hours per day, plus 500 mL per day of 7 ppm hydrogen water; three months.
Experiment [7] concerns adverse drug reactions of sleepiness and tiredness. The note with it: person, three days later.
The test system of experiment [8] is adverse drug reactions of lost hair on the head and rough skin. The settings on record: person, hydrogen gas 6.6% by volume, approximately 120 mL/min.

Structures are written as SMILES.

As for `[2H][2H]` [D2, deuterium], the “superoxide eliminating effect compared with H2” value in experiment [1] is recorded as “stronger”.
On to `[HH]` [hydrogen gas, molecular hydrogen], for which, in experiment [2] (new quinolone antibacterial agent), the “strength in the limbs” value is given as “became gradually able to put strength into the limbs”. Further, the tiredness result in experiment [2] is recorded as “reduced tiredness”. Besides, in experiment [3] (90 minutes later), the nausea result is reported as “Nausea was gradually resolving”. The “malaise (body feeling)” value in experiment [3] (one hour after start of inhalation) is on record as “they felt the body becoming light”. In experiment [4] (from 10 days after initiation), the walking difficulty entry is given as “able to walk”. For the same compound, the edema after dialysis result in experiment [4] (from one month after initiation) is “edema was reduced”. Further, the “sleep (insomnia)” value in experiment [5] (esophageal cancer, hydrogen gas 1.3% by volume, approximately 30 mL/min, two to three hours per day, following the second inhalation) is listed as “could sleep soundly”. Besides, the “ability to go out / body feeling” value in experiment [5] (hydrogen gas 1.3% by volume, approximately 30 mL/min, two to three hours per day) is reported as “the patient was able to go out”. Also, the “hangover after too much alcohol” value in experiment [5] (hydrogen inhaled before going to sleep) is reported as “a hangover started improving earlier than usual”. Further, in experiment [6], the malaise result is recorded as “malaise subsided” and the skin condition entry is recorded as “the skin started becoming lustrous”. For the same compound, the “tiredness of the body after taking the drugs” value in experiment [7] (cedar pollinosis, hydrogen gas 6.6% by volume, approximately 120 mL/min, 90 minutes to three hours per day, plus 7 ppm hydrogen water 500 mL to 1 L per day) is on record as “reduced”. Moreover, the “sleepiness / clearness of the head” value in experiment [7] (hydrogen gas 6.6% by volume plus 7 ppm hydrogen water) is recorded as “they felt that the head was cleared”. The rough skin entry in experiment [8] (sarcoma, anticancer agents and Opdivo, approximately one month later) was “the rough skin started improving”. The “hair on the head” value in experiment [8] (inhalation continued for six months after anticancer treatment) is listed as “started growing”.
